# Laboratory results: US20100166714A1, “CARDIOVASCULAR STEM CELLS, METHODS FOR STEM CELL ISOLATION, AND USES THEREOF” (THE GENERAL HOSPITAL CORPORATION, priority 2006, published 2010)
# Test system: FACS purified isl1+ progenitors spontaneously differentiated into smooth muscle cells
# Assay: Calcium imaging (fluo-4) after Angiotensin II stimulation
# Type: cell-based, mouse
# Details: Angiotensin II 10^-7 M
# Procedure: Calcium imaging. FACS purified isl1^+ progenitors from double heterozygous isl1-mER-Cre-mER/R26R were plated on fibronectin coated glass chamber slides and allowed to spontaneously differentiate in DMEM/F12 containing B27 supplement, 2% FBS, and 10 ng/ml EGF. After 5 days in culture, cells were incubated for 20 minutes with 5 μM Fluo-4 AM (Molecular Probes) in HEPES buffer. Cells were then rinsed three times in HEPES buffer, pH 7.4, containing 1.5 mM Ca^2+. Angiotensin II was applied at the final concentration of 10^−7 M. Calcium imaging was acquired every 100 msec in 100 sec installment and analyzed using Metamorph software (Universal Imaging Corporation). Each experiment included three installments to cover the period of the agonist effect.
substance,measurement,setting,value
"Angiotensin II (DRVYIHPF; Angiotensin-2; UniProt P01019 25-32, looked up)",measured cells in which exposure induced a progressive cytosolic [Ca2+]i increase,"isl1+ progenitors from isl1-mER-Cre-mER/R26R mice after 5 days in culture, Fluo-4 AM",4 of 25
same,time at which the cytosolic [Ca2+]i increase reached the maximum,"responding cells, diminished thereafter",~70 s
